Assays:
[1] = target: 5-HT2A receptor, human recombinant (Homo sapiens, UniProt P28223); assay: Binding assay, 5-HT2A receptor ([3H]ketanserin)
Description: Moreover, ability of the compounds of the invention to block potassium channel hERG was tested.
The specific ligand binding to the receptors is defined as the difference between the total binding and the non-specific binding determined in the presence of an excess of unlabelled ligand.
The inhibition constants (Ki) were calculated using the Cheng Prusoff equation (Ki=IC50/(1+(L/KD)), where L=concentration of radioligand in the assay, and KD=affinity of the radioligand for the receptor). A Scatchard plot is used to determine the Kd. The IC50 values (concentration causing a half-maximal inhibition of control specific binding) and Hill coefficients (nH) were determined by non-linear regression analysis of the competition curves generated with mean replicate values using Hill equation curve fitting (Y=D+[(A−D)/(1+(C/C50)^nH)], where Y=specific binding, D=minimum specific binding, A=maximum specific binding, C=compound concentration, C50=IC50, and nH=slope factor).

[2] = system: male Wistar rats; assay: Reversal of the dizocilpine (MK-801)-induced PPI deficits in rats; assay type: in vivo
Description: (§1) Drug-naive male Wistar rats (Charles River, Sulzfeld, Germany) weighing 250-400 g were housed in polycarbonate Makrolon cages (380×200×590 mm) in an environmentally controlled, experimental room (ambient temperature 21-23° C.; relative humidity 50-60%; 12:12 light:dark cycle, lights on at 7:00 a.m.), in groups of 4. Tap water and standard lab chow (Labofeed H, WPIK, Kcynia, Poland) was available ad libitum.
(§2) The animals were delivered to the Animal Research Unit of the Department of Pharmacology, Institute of Psychiatry and Neurology, 2 weeks before the start of experimental procedures. During these 2 weeks all the rats were repeatedly getting used to the presence of the experimenter (handling), and to injections of saline.
On the day before experiments rats were weighted exact to 1 g. Animals were assigned randomly to treatment groups. All the experiments were performed on separate groups of animals, between 9:00 and 15:00. […]
The PPI apparatus consisted of eight acoustic startle chambers (SR-LAB, San Diego Instruments, San Diego, Calif., USA). […] Startle responses, reflecting the motion of animals in the cylinder following the acoustic stimulus, were detected by a piezoelectric transducer mounted below the frame. […]
The average inter-trial interval was 22.5 s (range: 15-30 s). […] Startle responses were measured for 100 ms after the onset of the last trial stimulus. […]

[3] = system: male Wistar rats; assay: Conflict test (Vogel test) in rats; assay type: in vivo
Description: as §1, §2
On the day before experiments rats were weighted exact to 1 g. Animals were assigned randomly to treatment groups. All the experiments were performed on separate groups of animals, between 9:00 and 15:00. Tested compound was administered intraperitoneally (i.p.) in an injection volume of 2 ml/kg in at least 3 selected doses. Control groups received an appropriate vehiculum. […]
The test was performed by modified method described by Vogel et al. (Psychopharmacologia, 21 (1), 8-12, 1971) using the monitoring system TSE Systems. […] The number of licks and the number of shocks received throughout a 5-min experimental session were recorded automatically.

Chain of 5-HT2A receptor, human recombinant (P28223 whole entry, looked up): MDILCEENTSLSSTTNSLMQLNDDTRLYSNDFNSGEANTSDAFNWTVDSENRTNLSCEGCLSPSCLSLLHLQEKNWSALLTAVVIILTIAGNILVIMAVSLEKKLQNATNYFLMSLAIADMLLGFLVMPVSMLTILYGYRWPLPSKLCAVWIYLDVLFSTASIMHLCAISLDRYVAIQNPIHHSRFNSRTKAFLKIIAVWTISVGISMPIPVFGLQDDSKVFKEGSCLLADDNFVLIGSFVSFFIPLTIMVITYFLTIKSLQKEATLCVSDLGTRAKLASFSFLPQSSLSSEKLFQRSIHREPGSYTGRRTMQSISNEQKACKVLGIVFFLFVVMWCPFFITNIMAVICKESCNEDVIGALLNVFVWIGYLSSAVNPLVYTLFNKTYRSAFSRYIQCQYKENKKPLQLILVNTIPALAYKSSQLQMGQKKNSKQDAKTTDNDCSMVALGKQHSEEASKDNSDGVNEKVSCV

Compound | Ki [1] [nM] | activity in words, dizocilpine (MK-801)-induced PPI deficit test [2] | MED (minimum effective dose), reversal of dizocilpine (MK-801)-induced PPI deficits ([2]; i.p., 60 min. before the test) [mg/kg] | activity in words, conflict drinking test (Vogel) [3] | MED (minimum effective dose), conflict test (Vogel test) ([3]; i.p.) [mg/kg]
O=C1CCc2ccc(OCCCCN3CCN(c4cccc5c4ccn5Cc4cccc(Cl)c4)CC3)cc2N1 [Compound 67, 7-[4-[4-[1-[(3-Chlorophenyl)methyl]indol-4-yl]piperazin-1-yl]butoxy]-3,4-dihydro-1H-quinolin-2-one] | 2.4 |  |  |  | 
O=C1CCc2ccc(OCCCCN3CCN(c4cccc5c4ccn5S(=O)(=O)c4ccccc4)CC3)cc2N1 [Compound 24, 7-(4-(4-(1-(Phenylsulphonyl)-1H-indol-4-yl)piperazin-1-yl)butoxy)-3,4-dihydroquinolin-2(1H)-one] |  | active | 10 | active | 3

Source: patent publication US20140121216A1, “INDOLEAMINE DERIVATIVES FOR THE TREATMENT OF CENTRAL NERVOUS SYSTEM DISEASES” (Adamed Sp. z o.o., priority 2011, published 2014)
